Reference: patent publication US20240208895A1, “BRANCHED-CHAIN AMINO ACID DERIVATIVES TO TREAT DISEASE” (INTRABIO LTD., priority 2021, published 2024)

Target: T1, human transporter MCT1 (Homo sapiens, UniProt P53985)
T1 construct: expressed in transfected cells; host or cells: MDCK-II
T1 sequence (P53985 1-500): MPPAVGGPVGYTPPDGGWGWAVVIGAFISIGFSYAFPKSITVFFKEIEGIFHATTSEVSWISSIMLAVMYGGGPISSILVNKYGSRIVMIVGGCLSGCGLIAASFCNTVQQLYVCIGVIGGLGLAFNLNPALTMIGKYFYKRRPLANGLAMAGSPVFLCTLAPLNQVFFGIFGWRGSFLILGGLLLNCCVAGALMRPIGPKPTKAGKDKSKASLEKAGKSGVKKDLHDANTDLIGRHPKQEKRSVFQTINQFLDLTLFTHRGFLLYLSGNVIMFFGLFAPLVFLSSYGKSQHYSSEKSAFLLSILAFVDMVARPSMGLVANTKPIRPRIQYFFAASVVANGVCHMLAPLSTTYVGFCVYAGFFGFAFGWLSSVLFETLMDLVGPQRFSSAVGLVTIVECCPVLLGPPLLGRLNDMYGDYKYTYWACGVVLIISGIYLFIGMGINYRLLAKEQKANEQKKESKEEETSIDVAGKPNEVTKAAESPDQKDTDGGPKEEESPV
Experiment: Human MCT1-mediated transport in MDCK-II cells (Example 9)
Format: cell-based
Details: MDCK-II cells expressing human MCT1, pH 5.5, 1 minute, normalized to Vmax of thiophene-2-glyoxylic acid
Method: Representative Compounds of the Disclosure are tested in (i) MDCK-II cells expressing human transporter MCT1; and (ii) MDCK-II cells transfected with a control vector (GFP) as control cells for human transporter MCT1. 2-Thiophene-glyoxylic acid (TPGA) is the positive control for transport.
• 1. A stock solution is prepared with the test article (Compound of the Disclosure) in DMSO or in HBSS-Bis-Tris. • 2. Final assay solutions of probe substrate or test article contain 0.5% (v/v) DMSO (vehicle control). • 3. Test article concentrations are 10 μM, 30 μM, 100 μM, 300 μM, 1000 μM, 3000 μM, and 10000 μM.
MDCK-II cells are maintained in DMEM with low glucose and 10% FBS. Cells passages up to 40 are seeded at 60K±10K cells/well on 96-well, transwell membrane plates approximately 24 hours before transfection. Transport assays are carried out approximately 48 hours after transfection.
• 1. Test system: • a. Test system: 96-well cell culture plate with wells containing a monolayer of MDCK-II cells grown on a permeable support and a corresponding 96-well receiver tray. Cell plates are maintained at 37° C. in 5% CO2 atmosphere prior to initiation of the transport experiment. • b. Pre-incubation is conducted in HBSS, pH 7.4. Transport experiments are conducted in HBSS with Bis-Tris, pH 5.5, without phenol red. Pre-incubation and incubation are conducted at ambient temperatures. • c. Each condition is run in triplicate wells. • d. […] The result from the control cells is used to correct for substrate permeation by routes other than the transporter being investigated in the study. • 2. Prepare the 96-well plate as follows: • a. Wash the basal side of the culture plate insert with HBSS three times. After the final wash, blot the basal side of the wells and keep this side dry. • b. Wash the culture plate wells with HBSS three times. The wells of the culture plate serve as the apical compartment. • 3. Aspirate the final wash from the culture plate. The wells of the culture plate serve as the apical compartment. Add 100 μL of HBSS pH 7.4 pre-incubation buffer containing vehicle to the apical compartments. • 4. Incubate the plates with orbital shaking at approximately 60 RPM for the pre-incubation time specified in Table 1 of this protocol. • 5. Aspirate the pre-incubation buffer from the apical compartment of the plates. Add 100 μL of the experimental buffer that is prepared as follows and maintained at ambient temperatures. • a. For the probe substrate transport assay, the HBSS with Bis-Tris, pH 5.5 in each well contains the probe substrate at 500 μM (positive control for transport) and vehicle control. • b. For the test article assays, the HBSS with Bis-Tris, pH 5.5 in each well contains the test article at 10 μM, 30 μM, 100 μM, 300 μM, 1000 μM, 3000 μM, and 10000 μM. • 6. Incubate at ambient temperature with orbital shaking at approximately 60 RPM for the incubation time of 1 minute. • 7. […]
• 1. The amount of radiolabeled probe substrate will be quantified with radiometric detection on a 1450 Microbeta (Perkin-Elmer). • 2. The amount of non-radiolabeled probe substrate or test article will be quantified by LC-MS/MS. • 3. […] For uptake assays, the net transporter-mediated uptake rate (V) of the substrate by each SLC transporter will be calculated as follows:
[formula] • 5. For transport kinetics assessment, Km and Vmax will be calculated by non-linear regression using the Michaelis-Menten equation. • 6. […]

CC(=O)N[C@@H](CC(C)C)C(=O)O [N-acetyl-L-leucine]
uptake mediated by MCT1: transported
